For one compound, bioavailability results are on record in ChEMBL document CHEMBL1137096, “Optimization and metabolic stabilization of a class of nonsteroidal glucocorticoid modulators” (Bioorg Med Chem Lett, 2004).

The term bioavailability denotes dose-corrected exposure relative to a reference, in per cent. Low readings indicate poor availability, high ones good availability.

Molecules are shown by their SMILES.

The nature of the data set: in vivo. The note with it: rat.

Compound `Cc1c(NS(C)(=O)=O)cccc1N(Cc1ccccc1)Cc1ccc(Oc2cccc(OCCCC(=O)NCCCC(=O)O)c2)cc1` registered a bioavailability of 12%.
